Tests used:
[1] = test system: immortalized human sebocytes in culture, derived from the SZ95 line; assay: Lipogenesis test: lipid content of sebocytes in culture by Nile red fluorescence; assay type: cell-based; conditions: for LIPID VARIATION (relative to the control): treatment for 2 days, neutral lipids, Nile red
Procedure: The activity of the compounds (2c) and (1e) described above was tested on a model of immortalized human sebocytes in culture, derived from the SZ95 line described in Zouboulis, C. C., Seltmann, H., Neitzel, H. & Orfanos, C. E., Establishment and Characterization of an Immortalized Human Sebaceous Gland Cell Line, J. Invest. Dermatol., 113, 1011–1020 (1999).
The test consisted in measuring the amount of lipids produced by the sebocytes of the line (at confluence), in the presence or absence of an active agent, diluted in DMSO, such that the final amount of DMSO in the culture medium is 0.1%. After treatment for 2 days, the adherent cells are treated with Nile red (1 μg/ml). The lipid content is then quantified by measuring the fluorescence of the dye (excitation/emission couple: 485–540 nm for the neutral lipids).
The tests are performed in sextuplicate and the experiment is repeated four times.

[2] = test system: immortalized human sebocytes in culture, derived from the SZ95 line; assay: Proliferation tests (MUH) and cell viability tests (LDH) run in parallel; assay type: cell-based
Excerpt: In parallel, proliferation tests (MUH) and cell viability tests (LDH) make it possible to check that the, effects obtained are not associated with an appreciable change in these biological parameters.

Structure (SMILES)	increase in the lipid content of the sebum ([1]; concentration 10^−5 M, same test)	LIPID VARIATION (relative to the control) ([1]; concentration 10^−6 M)	Proliferation/cytotoxicity ([2]; concentration 10^−6 M)	LIPID VARIATION (relative to the control) ([1]; concentration 10^−4 M)	Proliferation/cytotoxicity ([2]; concentration 10^−4 M)
C[C@]12CC[C@H](O)CC1=CC[C@@H]1[C@@H]2CC[C@]2(C)C(=O)CC[C@@H]12 [DHEA, reference compound]	13%				
COc1ccc(N2C(=O)c3c(OC)cccc3S2(=O)=O)cc1 [(2c), 4-methoxy-2-(4-methoxyphenyl)-1,2-benzisothiazol-3(2H)-one 1,1-dioxide]		+43%	no		
O=C1c2c(O)cccc2S(=O)(=O)N1c1ccccc1 [(1e), 4-hydroxy-2-phenyl-1,2-benzisothiazol-3(2H)-one 1,1-dioxide]		+16%	no	+39%	no

Reference: patent US7232839B2, “Benzoisothiazolone compositions” (L'Oreal, priority 2004, dated 2007)
